Experimental findings from patent US20260240931A1 (priority 2022, published 2026) are described below.

Data set [1] concerns human hair follicle dermal papilla cells (HDPs). The following applies: 100 nM. As for the experimental part:
C57BL/6 mice (male, five weeks old) were purchased from Orient Bio. In addition, the mice were raised with sufficient water and food. The animal experiment of the present disclosure was performed in accordance with the guidelines ([…]-2021 Jul. 18-1) of the Institutional Animal Care and Use Committee (IACUC) at Sungkyunkwan University. The HDP cells were cultured in a HDP growth medium under conditions of 37° C. and 5% CO2.
Cell proliferation analysis was performed in the presence or absence of dihydrotestosterone ([…]). […] The optical density was detected at 540 nm.

The test system of data set [2] is testosterone-induced androgenetic alopecia model. Kind of data set: testosterone-induced androgenetic alopecia model: hair growth, skin color score, hair type frequency, hair thickness. The class given is in vivo, C57BL/6 mice. The following applies: on 1 week. The procedure:
A testosterone-induced androgenetic alopecia model was fabricated using C57BL/6 mice. C57BL/6 mice (n=6) were divided into the following five groups: Normal group, Vehicle control group: Experimental group treated with 40 μg/kg/week testosterone, Experimental group treated with 5 mg/day Cs-EE (Connarus semidecandrus Jack. extract according to the present disclosure), Experimental group treated with 10 mg/day Cs-EE, and Positive control group: Experimental group treated with 5 mg/kg/day finasteride. To confirm a hair growth promoting effect of Cs-EE, the dorsal part of each mouse was treated with hair removal cream and shaved using an electric clipper twice; seven and three days before the first testosterone treatment.
40 μg/kg of testosterone was dissolved in sesame oil and then subcutaneously injected once a week four times. Thereafter, in the case of the Cs-EE-treated experimental group, Cs-EE diluted with PBS and DMSO (ratio of 1:1) was applied to the back part of the mouse once every day for three weeks. As the positive control group, 5 mg of finasteride was treated instead of Cs-EE of the present disclosure. Two days after the testosterone injection, mice in all experimental groups were euthanized. Thereafter, the dorsal hairs were isolated from each experimental group to confirm hair type frequency and hair thickness. […]

Regarding `C[C@]12CCC(=O)C[C@@H]1CC[C@@H]1[C@@H]2CC[C@]2(C)[C@@H](O)CC[C@@H]12` [DHT, dihydrotestosterone], the “cytotoxicity to HDP cells (FIG. 9B)” value in data set [1] was “cytotoxic”.

For `CC(C)(C)NC(=O)[C@H]1CC[C@H]2[C@@H]3CC[C@H]4NC(=O)C=C[C@]4(C)[C@H]3CC[C@]12C` [finasteride], the “hair growth on shaved skin (FIG. 2)” value in data set [2] is listed as “remained hairless”.
